Assay results published in patent US10092568B2, “CBP/Catenin antagonists for enhancing asymmetric division of somatic stem cells” (University of Southern California, priority 2010, dated 2018).
“Also recorded” adds a separate entry of the source. Each block holds one compound with its values, some of them ahead of it.

Tests used:
[1] = test system: p300/beta-catenin interaction; experiment: Disruption of the p300/beta-catenin interaction; assay type: biochemical
Description: Applicant next mapped the binding domains between CBP and beta-catenin, as well as between p300 and beta-catenin. The C-terminal trans-activating region of beta-catenin (647-781) interacted with the same 1-111 amino acids of both CBP and p300 (23). However, only the interaction between CBP and beta-catenin was disrupted by ICG-001, and not the p300/beta-catenin interaction.
(§1) IQ-1. In addition to ICG-001, a screen of a large chemical library for maintenance of pluripotency in mES cells led to the identification of another compound, termed IQ-1 (FIG. 2b). […] I-Q-1 diminishes the interaction between p300 and beta-catenin thereby increasing the CBP/beta-catenin interaction (24).

[2] = test system: PR72/130 subunit of the serine/threonine phosphatase PP2A; experiment: Binding to PP2A subunit
Description: as §1

[3] = test system: murine embryonic stem cells (mESCs); experiment: Maintenance of pluripotency of embryonic stem cells in long-term culture; assay type: cell-based, mouse; settings: Wnt-dependent
Description: as §1
Similar results upon selectively antagonizing the p300/catenin interaction have also been obtained with human ES cells (32; Hasegawa, K. et al. accepted Stem Cells Translation Medicine 2011). Blocking the CBP/catenin interaction with ICG-001 can prevent the induction of pluripotency, whereas selectively antagonizing the p300/catenin interaction can enhance reprogramming (33; present applicant unpublished data).

[4] = test system: p300 at Ser-89; experiment: Phosphorylation of p300 at Ser-89; assay type: cell-based
Description: as §1

[5] = test system: mitotic cells in the ventricular zone (VZ); experiment: Par3 localization assay of symmetric versus asymmetric divisions in the ventricular zone of embryonic brain; assay type: in vivo, mouse
Description: Taking advantage of the ready uptake and penetration through the placental barrier of applicant's small molecule Wnt modulators, applicant designed a series of experiments to investigate symmetric versus asymmetric divisions in the ventricular zone (VZ) of the brain during mouse embryonic development. Timed pregnant mice were topically treated for various time periods (1-3 days) with DMSO (vehicle control), the CBP/catenin antagonist ICG-001 or the p300/catenin antagonist IQ-1. Using a previously described protocol (56), the localization of […] (Par3) and DNA was examined in mitotic cells in the VZ. Par3 distributes symmetrically in cells that divide symmetrically and asymmetrically in cells that divide asymmetrically, whereas the DNA distributes symmetrically between the 2 cells. Using fluorescence microscopy, the percentage of mitotic cells dividing symmetrically or asymmetrically could be quantified. […] Antagonizing the CBP/catenin interaction with ICG-001 had no apparent effect yielding similarly, approximately 21% asymmetric divisions. […] Importantly, this decrease in asymmetric divisions upon treatment with IQ-1 could be rescued back essentially to control levels (i.e. ˜21%) by treatment with a 2-fold excess of ICG-001. Even further divergence in symmetric versus asymmetric divisions could be seen upon prolonged treatments. For example, treatment with IQ-1 (i.e., antagonizing p300/catenin interaction leading to increased usage of CBP) for 3 days (E13.5-16.5) decreased asymmetric divisions compared to control from 31% to 7%. […] This reporter mouse expresses EGFP, driven by the Tis21 promoter, in cells that have undergone neurogenic differentiative divisions.
For example, Bultje et al. (Bultje R Neuron 63, 189-202, 2009) describe an assay to measure asymmetric distributions in the ventricular zone (vz) to evaluate asymmetric divisions during neurogenesis. Essentially this involves treating the animal (either adult or in utero) for a set period of time with compounds (either p.o., s.c., i.v. or topically) with compounds and then sacrificing the animal and examining the Par3 distribution (e.g., via immunohistochemistry) in mitotic cells vs. DNA distribution (e.g., using DAPI staining) Par3 distributes equally among the two daughter cells during symmetric division and unequally (essentially all in one daughter cell) during asymmetric differentiation.

[6] = test system: skin injury; experiment: Skin injury repair in normal mice and hair-less mice models; assay type: in vivo, mouse; settings: 500 μM in vaseline once a day for eight days, both animal models
Method: The ability of CBP/catenin (e.g., CBP/β-catenin) antagonist to accelerate injured skin repair in normal mice models (having full hair growth and normal fur) and hair-less mice models was tested. In brief, on day 0, the animals were subjected to skin injury in two spots on the back, hind end of each animal. Each skin injury spot was treated with 500 μM of either Vaseline (petrolatum) (vehicle) or Laura-8 in vaseline once a day for eight days.

[7] = test system: hair-less mouse model; experiment: Hair growth in a hair-less mouse model; assay type: in vivo
Method: The ability of CBP/β-catenin antagonist to stimulate hair growth in a hair-less mouse model was tested. In brief, the animals were treated with either petroleum jelly or Laura-8 for 16 days. In addition, skin samples from each animal were taken and examined for hair-follicle formulation.

[8] = test system: aging mice; experiment: Long term topical treatment of aging mice; assay type: in vivo, mouse; settings: 12 months, from 6 to 18 months of age
Description: Left mouse is control, whereas right mouse received CBP/catenin (e.g., CBP/β-catenin) antagonists (topical Laura-8 as disclosed herein) for 12 months (from 6 months of age to 18 months of age).

[9] = test system: human skin (surgical waste); experiment: Ex vivo human skin assay, qRT-PCR; assay type: cell-based; settings: 24 hrs; 5 uM ICG-001, 5 uM methylated ICG-001, 1 ug/ml RA
Method: Methods. Ex Vivo human skin assay culture conditions were based upon a paper by Varani J et al Experimental and Molecular Pathology, 2004.
Briefly, human skin (surgical waste from plastic surgery procedures) was obtained and the subcutaneous layer of fat was trimmed manually with a scalpel. The skin was then cut into small fragments about 2 mm square and placed in 6 well plates. 1 ml of keratinocyte culture medium (Gibco 10724-011) with 1% P/S (penstrep antibiotic) was added to each well. The epidermis, bathed in media was placed facing up. On the next day (overnight culture in the media above), the skin fragments were transferred to fresh wells that contained either 5 uM ICG-001, 5-uM methylated ICG-001 or 1 ug/ml of retinoic acid (RA). After 24 hrs, skin samples in culture were removed for RNA isolation and qRT-PCR analysis of genes of interest (e.g., elastin (a gene involved in skin appearance and pliability (e.g., wrinkling)) and aquaporin 1, which is involved with hydration.

binding to PR72/130 subunit of PP2A [2]: binds
Structure (SMILES): CC(=O)c1ccc(N=NC(C(N)=O)=C2NC(C)(C)Cc3ccccc32)cc1 [IQ-1, reference compound]
p300/beta-catenin interaction [1]: diminishes
pluripotency of mESCs [3]: maintains the pluripotency; also recorded: prevents spontaneous differentiation
phosphorylation of p300 at Ser-89 [4]: decreased phosphorylation
asymmetric divisions in the VZ ([5]; 3 days, E13.5-16.5, control 31%): 7%
number of symmetric differentiative divisions ([5]; normal neural stem cells): increase
number of asymmetric divisions compared to vehicle control ([5]; topical or oral administration to pregnant mice): decreases
asymmetric divisions in the VZ ([5]; topical, 1 day, E13.5 to 14.5, DMSO approximately 21%): approximately 9%

normal stem cell niche [8]: does not deplete
Structure (SMILES): CCCCCCCCCCCC(=O)Oc1ccc(C[C@H]2C(=O)N(Cc3cccc4ccccc34)C[C@@H]3N(C(=O)NCc4ccccc4)CCC(=O)N32)cc1 [Laura-8]
skin healing [6]: significantly accelerated
hair growth ([7]; 16 days, versus petroleum jelly): significant hair growth
new hair-follicle formation ([7]; skin pathology): new hair-follicles were formed; also recorded: substantial new hair-follicle formation

Structure (SMILES): C[C@H]1C2N(C(=O)NCc3ccccc3)CCC(=O)N2[C@@H](Cc2ccc(O)cc2)C(=O)N1Cc1cccc2ccccc12 (some centres unmarked) [Me-ICG-001]
expression of aquaporin 1 [9]: larger increase
expression of elastin [9]: larger increase
